Measured values as given in patent publication US9868722B2, “Monocyclic pyrimidine/pyridine compounds as inhibitors of P97 complex” (Cleave Biosciences, Inc., priority 2013, dated 2018).
Where a name gives a salt, the structure may show the parent alone. Read-outs that look alike come from different tables or passages of the source.

Columns and labels:
p97 = p97 (Homo sapiens, UniProt P55072); assay: P97 ATPase biochemical assay (ADP Glo)
Description: The ATPase assay is performed according the following protocol: Purified enzyme (20 nM p97), substrate (20 μM ATP) and a dose titration of compounds are mixed in buffer (50 mM TRIS pH 7.5, 20 mM MgCl2, 0.02% TX-100, 1 mM DTT, 0.2% (v/v) glycerol) and incubated at 37° C. for 15 minutes. The reaction is terminated and the level of product generated is measured using the ADP Glo Assay Kit (Promega, Madison Wis.). Plotting product generated versus compound concentration and using a four-parameter fit model generates an IC50 value for each compounds.
The p97 assay is an initial screening assay used to determine inhibitory activity of the monocyclic pyrimidine compounds of the invention against the p97 complex. As discussed above, inhibition of activity of the p97 proteosome complex can enable apoptosis and cause elimination of neoplastic cells (cancer cells). The method follows that of Christianson in Nat. Cell Biol., (2011) 14:93.
Assay Buffer is a mixture of 50 mM TRIS pH 7.5, 20 mM MgCl2, 0.02% TX-100, 1 mM DTT and 0.2% (v/v) Glycerol. The well plate is Platetype: Corning 3674, 384w plate. The identification kit is an ADP glo kit (Promega): stop buffer, detection reagent.
Serial dilute compound in DMSO in a 1:3.33-fold 10 point serial dilution.
0.5 μL compound serial diluted in DMSO (Final Conc. 10%)
2 μL ATP (Final Conc.=20 uM, diluted in assay buffer)
2.5 μL p97 (Final Conc.=20 nM, diluted in assay buffer)
Incubate at 37 degC for 15 min.
Add 5 μL of stop buffer, incubate at RT for 40 min.
Add 10 μL of detection reagent, incubate at RT for 30 min.
Read luminescence on Envision plate reader. • Upon obtaining the data from the luminescence reading, the data may be analyzed as follows:
Normalize luminescence data using no enzyme (full inhibition) and no compound (no inhibition) controls. Plot normalized luminescence data against log-transformed concentration values and fit to a sigmoidal curve to determine IC50 values (done in Collaborative Drug Discovery software).
The results are reported on the following Table for Examples A-EE and the E1-E4 compounds as 50 percent Inhibitory concentration at candidate doses of less than 30 nM, less than 100 nM, less than 300 nM and less than 1000 nM for the p97 inhibition assay.

A549 cells = assay: Cultured cancer cell viability assay (cell titer glo, A549 CTG); format: cell-based; settings: Homo sapiens
Excerpt: Anti-tumor effects are monitored in cultured cancer cells after several days of compound treatment. The cell titer glo assay (Promega) measures the amount of ATP present as a proxy for cellular viability. Cellular counting is done using high-content microscopy followed by image analysis. A hanging drop 3D-culture system (3D Biomatrix) is used followed by cell titer glo to measure growth in a tumor-like environment.
The cellular assay provides information about the anti-neoplastic activity of the compounds of the invention. The compounds are tested against cultured cancer cells to determine whether or not the compounds of the invention are capable of intersecting with cancer cells to minimize or eliminate such cells. The assay involves establishing colonies of such cells and then treating them with the test compound under specified conditions and analysis regime to determine results.
(§1) Plate 25 μL of A549 cells in every well of 384-well plate using multidrop.
One (1) white plate for viability at 500 cells/well.
Serial dilute compounds with a 10 point 2-fold serial dilution in DMSO to make 250× stock compound solution
Dilute compounds 1:125 in cell culture media to make a 2× solution Add 25 μl of dilution compounds to cell plates in well duplicates
Put cells back in incubator (6 hr incubation for black plates, 72 hr incubation for white plates).
Thaw an aliquot of frozen cell titer glo (Promega G7572) at room temperature.
Add 45 mL of NaCl/PBS solution to 5 ml of cell titer glo (10×).
Remove white plates from incubator, leave at room temp for 30 minutes.
Add 25 μl of diluted cell titer glo to each well.
Shake plate for >1 minute.
Incubate plate for >5 minutes to stabilize luminescence. • Luminescence is stable for up to 3 hours.
Read luminescence on plate reader
The results are reported on the following Table I for Examples A-EE and the E1-E4 compounds as 50 percent Inhibitory concentration at candidate doses of less than 1 μM, less than 3 μM and less than 10 μM for both of the K48 antibody and the p53 (CTG) antibody assays

[1] = tested on: K48 poly-Ubiquitin accumulation in A549 cells; assay: A549 K48 poly-ubiquitin accumulation immunofluorescence assay; format: cell-based; settings: Homo sapiens
Description: Image-analysis is used to generate quantitative data from these assays that can be fit to a four-parameter sigmoid curve to derive IC50 values. Substrates of the ubiquitin-proteasome system, such as p53, are monitored after tumor cell lines are incubated with compounds for several hours. Accumulation of these proteins indicates an inhibition of proteasome-mediated degradation. Accumulation of lysine-48 chain linkage of poly-ubiquitin is also monitored by immunofluorescence as an indicator of ubiquitin-proteasome system inhibition. Both LC3 and SQSTM1 are mediators of autophagy. The localization and amounts of these proteins are monitored by immunofluorescence and report on the activity and inhibition of autophagy in response to p97 inhibition.
as §1
Two (2) black plates for IF at 2500 cells/well
Serial dilute compounds with a 10 point 2-fold serial dilution in DMSO to make 250× stock compound solution Dilute compounds 1:125 in cell culture media to make a 2× solution Add 25 μl of dilution compounds to cell plates in well duplicates Put cells back in incubator (6 hr incubation for black plates, 72 hr incubation for white plates).
Incubate cells in black plates with compound at 37 degC for 6 hrs. add 15 μL of 16% Paraformaldehyde (PFA) directly into media of each well, incubate at room temp for 5 min, flick plate and wash in 50 μL of PBS block in 50 μL of Blocking Buffer for 30 minutes (can go up to several hours) Blocking buffer: 1×PBS, 1% BSA, 0.3% Triton-X100, Hoechst (1:10,000) incubate in 25 μL of primary antibody in blocking buffer at 4 degC over night […]
Secondary Antibodies: • AlexaFluor488 Goat anti-Rabbit 1:2,000 (Life Tech A11008) • AlexaFluor555 Goat anti-Mouse 1:2,000 (Life Tech A21422) incubate in 25 μl of secondary antibody (1:2,000) in blocking buffer for 1-2 hrs at room temp (alexafluor488-anti-Rabbit/alexafluor555-anti-Mouse) Image plates in high content microscope with 405 nm, 488 nm and 555 nm filters Nuclear counts and cellular intensities of each markers are measured using Hoechst as a nuclear marker with an automated image analysis protocol using Matlab software (Math Works) The results are reported on the following Table I for Examples A-EE and the E1-E4 compounds as 50 percent Inhibitory concentration at candidate doses of less than 1 μM, less than 3 μM and less than 10 μM for both of the K48 antibody and the p53 (CTG) antibody assays

[2] = 20 nM p97, 20 uM ATP, 37 degC 15 min
[3] = A549, Table II, preliminary assays, read-out: Cell Titre Glow Assay IC50
[4] = A549 cells, 72 hr incubation, cell titer glo, read-out: A549 CTG IC50
[5] = A549, Table II, preliminary assays, read-out: K48 poly-Ubiquitin Accumulation
[6] = A549 cells, 6 hr incubation, K48-Ub antibody, read-out: A549 K48 IC50

Sequence of p97 (P55072 whole entry): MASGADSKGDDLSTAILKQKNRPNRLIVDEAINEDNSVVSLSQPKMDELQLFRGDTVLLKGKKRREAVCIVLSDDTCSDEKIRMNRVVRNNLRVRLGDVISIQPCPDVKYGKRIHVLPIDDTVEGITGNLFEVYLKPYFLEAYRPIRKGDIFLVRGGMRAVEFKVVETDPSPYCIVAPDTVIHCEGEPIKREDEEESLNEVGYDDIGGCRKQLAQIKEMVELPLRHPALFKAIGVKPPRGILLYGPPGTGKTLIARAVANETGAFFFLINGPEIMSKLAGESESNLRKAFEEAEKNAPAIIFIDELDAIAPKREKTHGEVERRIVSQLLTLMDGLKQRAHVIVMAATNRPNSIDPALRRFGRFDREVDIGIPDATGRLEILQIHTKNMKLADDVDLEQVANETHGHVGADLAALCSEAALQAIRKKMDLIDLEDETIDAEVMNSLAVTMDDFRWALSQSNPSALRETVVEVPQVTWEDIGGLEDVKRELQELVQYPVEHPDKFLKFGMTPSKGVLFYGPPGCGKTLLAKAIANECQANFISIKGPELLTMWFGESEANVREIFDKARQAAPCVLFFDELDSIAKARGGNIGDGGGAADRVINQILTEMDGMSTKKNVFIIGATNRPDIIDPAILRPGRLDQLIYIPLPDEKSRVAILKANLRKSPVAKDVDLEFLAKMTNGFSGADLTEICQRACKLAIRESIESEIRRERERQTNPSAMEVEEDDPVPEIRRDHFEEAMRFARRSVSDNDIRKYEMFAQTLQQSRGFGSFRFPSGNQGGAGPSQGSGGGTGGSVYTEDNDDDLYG

| SMILES | IC50 (p97; [2]) [nM] | IC50 (p97; Table II, preliminary assays) [nM] | IC50 (A549 cells; [3]) [nM] | IC50 (A549 cells; [4]) [nM] | IC50 [1, 5] [nM] | IC50 [1, 6] [nM] |
| --- | --- | --- | --- | --- | --- | --- |
| Cc1cc(NCc2ccccc2)nc(-n2c(C)cc3c(C(N)=O)cccc32)n1 [Example 1, 1-[4-(benzylamino)-6-methylpyrimidin-2-yl]-2-methyl-1H-indole-4-carboxamide] | < 100 | 42 | 2010 | < 3000 | 3000 | < 10000 |
| Cc1cc2c(C(N)=O)cccc2n1-c1ncc(C(F)(F)F)c(NCc2ccccc2)n1 [Example 4, 1-[4-(benzylamino)-5-(trifluoromethyl)pyrimidin-2-yl]-2-methyl-1H-indole-4-carboxamide] | < 30 |  |  | < 3000 |  | < 3000 |
| COc1c(C)nc(-n2c(C)cc3c(C(N)=O)cccc32)nc1NCc1ccccc1 [Example 7, 1-[4-(benzylamino)-5-methoxy-6-methylpyrimidin-2-yl]-2-methyl-1H-indole-4-carboxamide] | < 30 |  |  | < 3000 |  | < 3000 |
| Cc1nc(-n2c(C)cc3c(C(N)=O)cccc32)nc(NCc2ccccc2)c1C(C)C [Example 8, 1-[4-(benzylamino)-6-methyl-5-(propan-2-yl)pyrimidin-2-yl]-2-methyl-1H-indole-4-carboxamide] | < 30 |  |  | < 3000 |  | < 1000 |
| Cc1c(NCc2ccccc2)nc(-n2c(C)cc3c(C(N)=O)cccc32)nc1C(F)(F)F [Example 9, 1-[4-(benzylamino)-5-methyl-6-(trifluoromethyl)pyrimidin-2-yl]-2-methyl-1H-indole-4-carboxamide] | < 30 |  |  | < 3000 |  | < 3000 |
| Cc1cnc(-n2c(CN)cc3c(C(N)=O)cccc32)nc1NCc1ccccc1 [Example 31, 2-(aminomethyl)-1-[4-(benzylamino)-5-methylpyrimidin-2-yl]-1H-indole-4-carboxamide Hydrochloride] | < 1000 |  |  |  |  |  |
| CCc1cnc(-n2c(CN)cc3c(C(N)=O)cccc32)nc1NCc1ccccc1 [Example 32, 2-(aminomethyl)-1-[4-(benzylamino)-5-ethylpyrimidin-2-yl]-1H-indole-4-carboxamide] | < 300 |  |  |  |  |  |
| Cc1cc2c(CN)cccc2n1-c1ncc(C(C)C)c(NCc2ccccc2)n1 [Example 39, 2-[4-(aminomethyl)-2-methyl-1H-indol-1-yl]-N-benzyl-5-(propan-2-yl)pyrimidin-4-amine] | < 1000 |  |  |  |  |  |

Further lines, results first:

| IC50 (p97; [2]) [nM] | IC50 (p97; Table II, preliminary assays) [nM] | IC50 (A549 cells; [3]) [nM] | IC50 (A549 cells; [4]) [nM] | IC50 [1, 5] [nM] | IC50 [1, 6] [nM] | SMILES |
| --- | --- | --- | --- | --- | --- | --- |
| < 30 | 22 | 970 | < 1000 | 1600 | < 3000 | Cc1cnc(-n2c(C)cc3c(C(N)=O)cccc32)nc1NCc1ccccc1 [Example 2, 1-[4-(benzylamino)-5-methylpyrimidin-2-yl]-2-methyl-1H-indole-4-carboxamide] |
| < 30 | 7 | 467 | < 1000 | 890 | < 1000 | COc1cnc(-n2c(C)cc3c(C(N)=O)cccc32)nc1NCc1ccccc1 [Example 3, 1-[4-(benzylamino)-5-methoxypyrimidin-2-yl]-2-methyl-1H-indole-4-carboxamide] |
| < 30 | 12 | 1790 | < 3000 | 1400 | < 3000 | Cc1cc2c(C(N)=O)cccc2n1-c1ncc(Cl)c(NCc2ccccc2)n1 [Example 5, 1-[4-(benzylamino)-5-chloropyrimidin-2-yl]-2-methyl-1H-indole-4-carboxamide] |
| < 30 |  |  | < 1000 |  | < 1000 | CCc1cnc(-n2c(C)cc3c(C(N)=O)cccc32)nc1NCc1ccccc1 [Example 6, 1-[4-(benzylamino)-5-ethylpyrimidin-2-yl]-2-methyl-1H-indole-4-carboxamide] |
| < 100 |  |  | < 10000 |  | < 10000 | Cc1cc2c(C(N)=O)cccc2n1-c1ncc(C(N)=O)c(NCc2ccccc2)n1 [Example 10, 1-[4-(benzylamino)-5-carbamoylpyrimidin-2-yl]-2-methyl-1H-indole-4-carboxamide] |
| < 1000 |  |  |  |  |  | Cc1cc2c(C(N)=O)cccc2n1-c1ncc(N)c(NCc2ccccc2)n1 [Example 17, 1-[5-amino-4-(benzylamino)pyrimidin-2-yl]-2-methyl-1H-indole-4-carboxamide] |
| < 1000 |  |  |  |  |  | Cc1cc2c(C(N)=O)cccc2n1-c1ncc(CN(C)C)c(NCc2ccccc2)n1 [Example 21, 1-[4-(benzylamino)-5-[(dimethylamino)methyl]pyrimidin-2-yl]-2-methyl-1H-indole-4-carboxamide] |
| < 300 |  |  |  |  |  | Cc1cc2c(C(N)=O)cccc2n1-c1ncc(CN)c(NCc2ccccc2)n1 [Example 22, 1-[5-(aminomethyl)-4-(benzylamino)pyrimidin-2-yl]-2-methyl-1H-indole-4-carboxamide] |
| < 1000 |  |  |  |  |  | CNCc1cnc(-n2c(C)cc3c(C(N)=O)cccc32)nc1NCc1ccccc1 [Example 23, 1-[4-(benzylamino)-5-[(methylaminoc)methyl]pyrimidin-2-yl]-2-methyl-1H-indole-4-carboxamide] |
| < 1000 |  |  |  |  |  | Cc1cc2c(C(N)=O)cccc2n1-c1ncc(OCCN)c(NCc2ccccc2)n1 [Example 25, 1-[5-(2-aminoethoxy)-4-(benzylamino)pyrimidin-2-yl]-2-methyl-1H-indole-4-carboxamide] |
